Results as given in patent publication EP4000606A1, “COMPOUNDS FOR CORONAVIRUS INFECTION TREATMENT AND/OR PREVENTION” (priority 2020, dated 2022).
Read-outs that look alike come from different tables or passages of the source. Peptide text beside a SMILES is read from it. * marks the point of attachment. Cbz = O=C(OCc1ccccc1)*

System: SARS-CoV-2
Assay: microbe, parasite or virus in culture
Type: cell-based
[1] = Severe acute respiratory syndrome coronavirus 2, 120 h

CCN(CC)CCOc1ccc(C(=C(Cl)c2ccccc2)c2ccccc2)cc1.O=C(O)CC(O)(CC(=O)O)C(=O)O [compound 82, 2-[4-(2-Chloro-1,2-diphenylvinyl)phenoxy]-N,N-diethylethanamine citrate]
Maximum confluence reached (%) (5 days): 54.73%

Cn1c(Nc2ccc(C(F)(F)F)cc2)nc2cc(Oc3ccnc(-c4nc(C(F)(F)F)c[nH]4)c3)ccc21 [compound 70, 1-Methyl-N-[4-(trifluoromethyl)phenyl]-5-[2-[4-(trifluoromethyl)-1H-imidazol-2-yl]pyridin-4-yloxy]-1H-benzimidazol-2-amine]
Maximum confluence reached (%) (5 days): 44.1%

O=C(Nc1ccc(Cl)c(Cl)c1)Nc1ccc(Cl)c(Cl)c1 [compound 72, 1,3-Bis(3,4-dichlorophenyl)urea]
Maximum confluence reached (%) (5 days): 45.87%

CC(C)c1cnn2c(NCc3ccccc3)cc(NCCCCCCN)nc12 [compound 48, N5-(6-Aminohexyl)-N7-benzyl-3-isopropylpyrazolo[1,5-a]pyrimidine-5,7-diamine]
Maximum confluence reached (%) (5 days): 47.31%

COc1cc(NCc2ccc3nc(N)nc(N)c3c2C)cc(OC)c1OC [compound 2, 2,4-Diamino-5-methyl-6-[(3,4,5-trimethoxyanilino)methyl]quinaz oline 5-Methyl-6-[[(3,4,5-trimetoxyphenyl)amino]methyl]-2,4-quinazolinediamine]
Maximum confluence reached (%) (5 days): 78.23%

Cc1nc(N)nc(N)c1-c1ccc(Cl)c(Cl)c1 [compound 41, 5-(3,4-Dichlorophenyl)-6-methylpyrimidine-2,4-diamine]
Maximum confluence reached (%) (5 days): 58.02%

Cc1cccc(Nc2nc(-c3ccncc3)cs2)c1 [compound 85, N-(3-Methylphenyl)-4-(4-pyridyl)thiazol-2-amine]
Maximum confluence reached (%) (5 days): 47.81%

Cc1[nH]c(/C=C2\C(=O)Nc3ccc(S(=O)(=O)Cc4c(Cl)cccc4Cl)cc32)c(C)c1C(=O)N1CCC[C@@H]1CN1CCCC1 [compound 53, 5-(2,6-Dichlorobenzylsulfonyl)-3(Z)-[3,5-dimethyl-4-[2(R)-(pyrrolidin-1-ylmethyl)pyrrolidin-1-ylcarbonyl]-1H-pyrrol-2-ylmethylene]-2,3-dihydro-1H-indol-2-one]
Maximum confluence reached (%) (5 days): 95.69%

CC(C)(C)c1cc(C=C(C#N)C#N)cc(C(C)(C)C)c1O [compound 66, (3,5-Di-tert-butyl-4-hydroxybenzylidene)malononitrile]
Maximum confluence reached (%) (5 days): 47.6%

CC(C)COCC(CN(Cc1ccccc1)c1ccccc1)N1CCCC1.Cl.O (centres unmarked) [compound 78, 1-[1-(N-Benzylanilino)-3-isobutoxy-2-propyl]pyrrolidine monohydrochloride monohydrate]
Maximum confluence reached (%) (5 days): 30.41%

CC(C)C[C@@H](C=O)NC(=O)[C@H](CC(C)C)NC(=O)[C@H](CC(C)C)NC(=O)OCc1ccccc1 [compound 52, Benzyloxycarbonyl-L-leucyl-L-leucyl-L-leucinal] (Cbz-Leu-Leu-Leu-aldehyde)
Maximum confluence reached (%) (5 days): 82.81%

(1R,2S,3R)-3-(6-Amino-9H-purin-9-yl)-1,2-cyclopentanediol [compound 75]
Maximum confluence reached (%) (confluence of SARS-CoV-2 infected VeroE6-EGFP cells after test compound treatment compared to control wells, 5 days): 33.14%
IC50 (half maximal concentration able to recover the cytopathic effect of infection, VeroE6-EGFP cells, 0.01 MOI, 5 days, 8 concentrations, read-out: IC50): 0.36 µM

Nc1nc(N)c2nc(CNc3ccc(C(=O)N[C@@H](CCC(=O)O)C(=O)O)cc3)cnc2n1 [compound 10, N-[4-(2,4-diamino-6-pteridinylmethylamino)benzolyl]-L-glutamic acid]
Maximum confluence reached (%) (5 days): 72.54%

CNCc1ccc(-c2cc(-c3nc(-c4ccc(S(=O)(=O)C(C)C)cc4)cnc3N)on2)cc1 [compound 34, 3-[3-[4-[(Methylamino)methyl]phenyl]-1,2-oxazol-5-yl]-5-[4-(propan-2-ylsulfonyl)phenyl]pyrazin-2-amine]
Maximum confluence reached (%) (5 days): 99.21%

CC(C)(C)C(=O)C(=Cc1cccc([N+](=O)[O-])c1)n1cncn1 [compound 76, 4,4-dimethyl-1-(3-nitrophenyl)-2-(1H-1,2,4-triazol-1-yl)-1-penten-3-one]
Maximum confluence reached (%): 50.44%
IC50 [1]: 4.33 µM

O=C(NCCN1CCC2(CC1)C(=O)NCN2c1cccc(F)c1)c1ccc2ccccc2c1 [compound 56, N-[2-[1-(3-Fluorophenyl)-4-oxo-1,3,8-triazaspiro[4.5]dec-8-yl]ethyl]naphthalen-2-carboxamide]
Maximum confluence reached (%) (5 days): 98.46%

COc1ccc2cc1Oc1ccc(cc1)C[C@H]1c3cc(c(OC)cc3CCN1C)Oc1c(OC)c(OC)cc3c1[C@H](C2)N(C)CC3 [compound 79, (1beta)-(S,S)-6,6',7,12-Tetramethoxy-2,2'-dimethylberbaman]
Maximum confluence reached (%) (5 days): 99.64%

CC[C@@]1([C@@H]2O[C@@H]([C@H]3O[C@@](O)(COC(=O)Nc4ccccc4)[C@H](C)C[C@@H]3C)C[C@@H]2C)CC[C@H]([C@]2(C)CC[C@]3(C[C@H](O)[C@@H](C)[C@@H]([C@@H](C)[C@@H](OC)[C@H](C)C(=O)[O-])O3)O2)O1.[Na+] [compound 98, 4(S)-[(2S,5R,7S,8R,9S)-2-[(2S,2'R,3'S,5R,5'R)-2-Ethyl-5'-[6(R)-hydroxy-3(S),5(R)-dimethyl-6-(phenylaminocarbonyloxymethyl)tetrahydropyran-2(S)-yl]-3'-methylperhydro-2,2'-bifuran-5-yl]-9-hydroxy-2,8-dimethyl-1,6-dioxaspiro[4.5]dec-7-yl]-3(R)-methoxy-2(S)-methylpentanoic acid sodium salt]
Maximum confluence reached (%) (5 days): 38.24%
IC50 [1]: 3.18 µM

CCN(CC)CCOc1ccc2c(c1)C(=O)c1cc(OCCN(CC)CC)ccc1-2 [compound 84, 2,7-Bis[2-(diethylamino)ethoxy]-9H-fluoren-9-one]
Maximum confluence reached (%) (5 days): 68.89%

COc1cc2c(NC3CCN(C(C)C)CC3)nc(N3CCC(F)(F)CC3)nc2cc1OCCCN1CCCC1 [compound 95, 2-(4,4-Difluoropiperidin-1-yl)-6-methoxy-N-[1-(propan-2-yl)piperidin-4-yl]-7-[3-(pyrrolidin-1-yl)propoxy]quinazolin-4-amine]
Maximum confluence reached (%) (5 days): 31.06%

Nc1ccc(C(=O)Nc2cccc(-c3nc(N4CCOCC4)c4oc5ncccc5c4n3)c2)cn1 [compound 104, 6-Amino-N-[3-[4-(4-morpholinyl)pyrido[3',2':4,5]furo [3,2-d]pyrimidin-2-yl]phenyl]pyridine-3-carboxamide]
Maximum confluence reached (%) (5 days): 35.48%

COc1cc2c(N3CCN(C(=O)Nc4ccc(OC(C)C)cc4)CC3)ncnc2cc1OCCCN1CCCCC1 [compound 35, N-(4-Isopropoxyphenyl)-4-[6-methoxy-7-[3-(1-piperidinyl)propoxy]quinazolin-4-yl]piperazine-1-carboxamide]
Maximum confluence reached (%) (5 days): 80.09%

Nc1ncc(-c2ccnc(Nc3ccncc3)n2)c(CC2CC2)n1 [compound 20, 4'-(Cyclopropylmethyl)-N2-(pyridin-4-yl)-4,5'-bipyrimidine-2,2'-diamine]
Maximum confluence reached (%) (5 days): 98.17%

CN1CCN(CC/C=C2/c3ccccc3Sc3ccc(S(=O)(=O)N(C)C)cc32)CC1 [compound 109, (Z)-N,N-Dimethyl-9-[3-(4-methyl-1-piperazinyl)propylidene]thioxant hene-2-sulfonamide]
Maximum confluence reached (%) (5 days): 36.55%

O=S(=O)(NCC1CC1)c1ccc(Nc2nccc(N3CCCc4cc(O)ccc43)n2)cc1 [compound 86, N-(Cyclopropylmethyl)-4-[[4-(3,4-dihydro-6-hydroxy-1(2H)-quinolinyl)-2-pyrimidinyl]amino]benzenesulfo namide]
Maximum confluence reached (%) (5 days): 55.04%

O=C(O)c1ccc(N2C(=O)C(=Cc3ccc(-c4ccc([N+](=O)[O-])cc4)o3)C=C2c2ccccc2)cc1 [compound 105, 4-[3-[5-(4-Nitrophenyl)furan-2-ylmethylene]-2-oxo-5-phenyl-2,3-dihydro-1H-pyrrol-1-yl]benzoic acid]
Maximum confluence reached (%) (5 days): 52.15%
IC50 [1]: 236 µM

Cc1ccc(C(=O)Nc2cccc(C(F)(F)F)c2)cc1Nc1nc(-c2cccnc2)nc2c1cnn2C [compound 62, 4-methyl-3-{[1-methyl-6-(3-pyridinyl)-1H-pyrazolo[3,4-d]pyrimidin-4-yl]amino}-N-[3-(trifluoromethyl)phenyl]benzamide]
Maximum confluence reached (%): 88.43%

CC(C)C[C@H](NC(=O)CNC(=O)c1cc(Cl)ccc1Cl)B(O)O [compound 108, 1(R)-[2-(2,5-Dichlorobenzamido)acetamido]-3-methylbutylboronic acid]
Maximum confluence reached (%) (5 days): 30.79%
IC50 [1]: 135 µM

CC1(N2CCC(n3c([C@@H]4CCCNC4)nc4ccccc43)CC2)CCCCCCC1 [compound 51, 1-[1-(1-Methylcyclooctyl)piperidin-4-yl]-2-[3(R)-piperidinyl]-1H-benzimidazole]
Maximum confluence reached (%) (5 days): 57.77%

CC1=NN(c2ccc(C)c(C)c2)C(=O)/C1=N\Nc1cccc(-c2cccc(C(=O)O)c2)c1O [compound 37, 3'-[2(Z)-[1-(3,4-Dimethylphenyl)-3-methyl-5-oxo-4,5-dihydro-1H-pyrazol-4-ylidene]hydrazino]-2'-hydroxybiphenyl-3-carboxylic acid]
Maximum confluence reached (%) (5 days): 63.17%
IC50 [1]: 58.1 µM

CC(C)N1CCN(c2ccc(C(=O)c3c(-c4ccc(O)cc4)sc4cc(O)ccc34)cc2)CC1 [compound 87, 1-[6-Hydroxy-2-(4-hydroxyphenyl)-1-benzothien-3-yl]-1-[4-(4-isopropylpiperazin-1-yl)phenyl]methanone]
Maximum confluence reached (%) (5 days): 41.04%

C/C(=C\c1ccc(C(=O)O)cc1)c1ccc2c(c1)C(C)(C)CCC2(C)C [compound 26, 4-[2-(5,5,8,8-Tetramethyl-5,6,7,8-tetrahydronaphthalen-2-yl)-1(E)-propenyl]benzoic acid]
Maximum confluence reached (%) (5 days): 105.73%
IC50 [1]: 33.7 µM

Cc1cc(O[C@@H](CCC(F)(F)F)c2ccc(C(=O)NCCC(=O)O)cc2)cc(C)c1-c1ccc(C(C)(C)C)cc1 [compound 57, N-(4-[(1S)-1-[(4'-tert-Butyl-2,6-dimethylbiphenyl-4-yl)oxy]-4,4,4-trifluorobutyl]benzoyl)-beta-alanine]
Maximum confluence reached (%) (5 days): 39.53%

CC(C)(O)CNc1ncc(-c2ccnc(Nc3ccnc(Cl)c3)n2)c(CC2CC2)n1 [compound 60, 1-[[2-[(2-chloro-4-pyridinyl)amino]-4'-(cyclopropylmethyl) [4,5'-bipyrimidin]-2'-yl]amino]-2-methyl-2-propanol]
Maximum confluence reached (%) (5 days): 45.62%
